Data on 14 molecules can be found in patent US20230348358A1, “Serotonin Receptor Modulators” (Northeastern University, priority 2020, published 2023).

Where “and” joins values, the source holds several entries; their conditions need not be identical. Equal values may be shown once. Read-outs that look alike come from different tables or passages of the source.

For data set [1], the target named is T1, 5HT1A (Homo sapiens, UniProt P08908).
T1 sequence (P08908 1-422): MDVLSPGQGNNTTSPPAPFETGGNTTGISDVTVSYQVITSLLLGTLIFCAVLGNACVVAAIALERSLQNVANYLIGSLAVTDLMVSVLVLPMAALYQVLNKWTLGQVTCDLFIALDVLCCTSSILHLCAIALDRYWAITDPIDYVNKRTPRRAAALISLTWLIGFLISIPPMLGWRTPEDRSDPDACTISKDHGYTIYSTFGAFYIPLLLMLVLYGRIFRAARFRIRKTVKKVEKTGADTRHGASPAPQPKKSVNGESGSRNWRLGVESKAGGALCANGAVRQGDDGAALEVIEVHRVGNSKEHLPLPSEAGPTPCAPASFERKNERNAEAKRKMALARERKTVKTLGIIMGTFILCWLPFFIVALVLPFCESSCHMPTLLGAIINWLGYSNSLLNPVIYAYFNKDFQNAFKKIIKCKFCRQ
As to the kind of experiment: Affinity (Ki) at 5HT1A, transfected HEK cells.

In data set [2] the target is T2, 5HT7 (Homo sapiens, UniProt P34969). In words: Affinity (Ki) at 5HT7, HEK293 cells stably expressing 5HT7.
T2 sequence (P34969 whole entry): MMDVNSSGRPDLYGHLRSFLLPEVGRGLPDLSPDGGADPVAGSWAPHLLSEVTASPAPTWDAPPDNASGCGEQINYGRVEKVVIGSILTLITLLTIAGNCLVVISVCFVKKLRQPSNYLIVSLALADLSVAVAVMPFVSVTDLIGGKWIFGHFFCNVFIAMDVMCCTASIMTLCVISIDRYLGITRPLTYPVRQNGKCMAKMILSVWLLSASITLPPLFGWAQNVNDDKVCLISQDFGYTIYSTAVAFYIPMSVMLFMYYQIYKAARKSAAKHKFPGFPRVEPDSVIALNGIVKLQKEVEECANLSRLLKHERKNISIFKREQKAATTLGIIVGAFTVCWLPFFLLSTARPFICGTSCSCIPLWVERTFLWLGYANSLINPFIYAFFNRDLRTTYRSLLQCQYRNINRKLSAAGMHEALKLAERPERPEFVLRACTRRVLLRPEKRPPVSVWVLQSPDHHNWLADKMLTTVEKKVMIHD
The test system of a further data set is C57BL/6J mice. In words: DOI-elicited head-twitch response (HTR). It counts as in vivo, mouse. Conditions: mouse, in vivo. An excerpt:
The 5-HT2A receptor is a predominant 5-HT receptor in the cortex, and serves important excitation modulation functions on glutamate pyramidal and GABA neurons.

The subject of another data set is BL/6J mice. As to the kind of experiment: Serotonin syndrome-like behavior observation. It counts as in vivo, mouse. The note with it: mouse, in vivo.
The subject of data set [3] is mice (C57BL/6J, FVB, C58/J). As to the kind of experiment: Locomotor behavior, compound on its own. The class given is in vivo, mouse. The note with it: for Locomotor behavior: compound on its own or in the DOI assay.
The target of data set [4] is T3, 5HT2A receptors (Homo sapiens, UniProt P28223).
T3 construct: host or cells: HEK293, transient
T3 sequence (P28223 whole entry): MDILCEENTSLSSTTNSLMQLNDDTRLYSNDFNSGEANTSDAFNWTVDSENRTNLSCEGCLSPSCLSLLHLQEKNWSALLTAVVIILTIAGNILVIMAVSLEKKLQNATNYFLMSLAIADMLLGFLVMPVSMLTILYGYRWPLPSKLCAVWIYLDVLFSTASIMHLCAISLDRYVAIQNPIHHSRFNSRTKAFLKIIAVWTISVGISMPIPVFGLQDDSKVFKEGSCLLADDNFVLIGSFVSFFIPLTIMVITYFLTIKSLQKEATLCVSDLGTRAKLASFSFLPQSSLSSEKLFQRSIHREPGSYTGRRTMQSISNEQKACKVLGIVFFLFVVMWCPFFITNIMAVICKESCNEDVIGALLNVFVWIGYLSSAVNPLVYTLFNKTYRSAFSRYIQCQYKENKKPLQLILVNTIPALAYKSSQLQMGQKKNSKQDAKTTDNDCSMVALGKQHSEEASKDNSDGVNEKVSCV
In words: 5-HT2A function in HEK cells over-expressing the receptor. It counts as cell-based.

Data set [5] addresses T2, 5HT7. As to the kind of experiment: 5HT7 function, Gs-cAMP signaling (HEK293 cells). Set-up: ATCC CRL-1573 (cells). The class given is cell-based. Conditions: for Function at 5HT7: cAMP signaling. An excerpt:
It is certain that the C(5) substituent impacts function. […] In FIG. 3, results of measured (S)-5-PAT scaffold yields with various function as 5HT7 ligands are compared with AS-19 and clozapine.

For data set [6], the target named is T3, 5HT2A receptors. As to the kind of experiment: biochemical. The class given is binding.
Another data set addresses T4, 5HT2C receptors (Homo sapiens, UniProt P28335).
T4 construct: host or cells: HEK293, transient
T4 sequence (P28335 33-458): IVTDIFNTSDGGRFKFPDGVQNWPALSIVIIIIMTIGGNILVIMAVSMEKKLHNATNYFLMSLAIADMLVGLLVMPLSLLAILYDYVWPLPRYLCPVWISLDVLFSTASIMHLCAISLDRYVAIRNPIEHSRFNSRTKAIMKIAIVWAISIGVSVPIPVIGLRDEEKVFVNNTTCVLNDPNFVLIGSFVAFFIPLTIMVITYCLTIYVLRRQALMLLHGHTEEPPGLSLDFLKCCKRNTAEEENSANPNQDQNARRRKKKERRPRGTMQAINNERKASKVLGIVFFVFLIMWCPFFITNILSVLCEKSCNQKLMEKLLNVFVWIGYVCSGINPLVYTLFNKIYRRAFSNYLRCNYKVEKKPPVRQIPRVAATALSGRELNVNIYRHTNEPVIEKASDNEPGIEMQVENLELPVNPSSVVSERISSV
As to the kind of experiment: 5HT2C functional assay. The class given is cell-based.

The target in data set [7] is T5, 5HT2B receptors (Homo sapiens, UniProt P41595).
T5 construct: host or cells: HEK293, transient
T5 sequence (P41595 whole entry): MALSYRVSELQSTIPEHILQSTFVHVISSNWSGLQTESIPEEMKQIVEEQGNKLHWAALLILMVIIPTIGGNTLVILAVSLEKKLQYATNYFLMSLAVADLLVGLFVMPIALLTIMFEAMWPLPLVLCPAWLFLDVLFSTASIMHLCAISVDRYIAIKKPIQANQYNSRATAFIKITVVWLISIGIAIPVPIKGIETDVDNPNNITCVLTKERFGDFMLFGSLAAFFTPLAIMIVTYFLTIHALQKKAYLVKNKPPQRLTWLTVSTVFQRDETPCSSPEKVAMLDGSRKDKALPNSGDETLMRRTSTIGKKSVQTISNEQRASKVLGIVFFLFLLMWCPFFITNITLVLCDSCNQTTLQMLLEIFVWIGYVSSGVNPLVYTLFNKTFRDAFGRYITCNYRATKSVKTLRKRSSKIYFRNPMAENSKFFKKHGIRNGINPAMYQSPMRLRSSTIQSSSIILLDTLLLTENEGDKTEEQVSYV
As to the kind of experiment: Affinity at 5HT2B receptors. It counts as binding.

The target of data set [8] is T1, 5HT1A. As to the kind of experiment: 5HT1A function, Gαi cAMP signaling (CHO cells). The class given is cell-based.
The test system of a further data set is 50 CNS/peripheral sites. In words: NIMH PDSP / NIDA evaluation at 50 CNS/peripheral sites. The class given is binding.
Data set [9] has as its target T5, 5HT2B receptors. As to the kind of experiment: 5HT2B functional assays. The class given is cell-based.
The target in data set [10] is T2, 5HT7. On the set-up: ATCC CRL-1573 (cells). The note with it: cited from earlier work.
Data set [11] has as its target T2, 5HT7. On the set-up: ATCC CRL-1573 (cells). Conditions: reported human receptor data; cited from earlier work.
Setting [12] is: read-out: Affinity Ki ± SEM at 5HT7.
[13] abbreviates: read-out: Affinity Ki ± SEM at 5HT1A.

The term Ki denotes the equilibrium dissociation constant of an inhibitor or competing ligand from its target. Regarding `Fc1ccccc1-c1cccc2c1CCC(N1CCCC1)C2` (racemic) [(R/S)-5-FPyT, 1-(5-(2-fluorophenyl)-1,2,3,4-tetrahydronaphthalen-2-yl)-pyrrolidine], the Ki at 5HT1A [1] came to 0.0013 ± 0.0001 µM; on 5HT7 [2], 0.051 ± 0.008 µM.
With `CCCN(CCC)C1CCc2cccc(O)c2C1` (single isomer, unassigned; (+)) [(+)-DPAT, reference compound], in the data set on C57BL/6J mice, the “DOI-elicited HTR” value is reported as “suppressed the DOI HTR”. In addition, in the data set with BL/6J mice, the “Serotonin syndrome” value is on record as “obvious serotonin syndrome”. For the same molecule, the Locomotor behavior result in [3] was “severe hypolocomotion”.
The term EC50 denotes the concentration at which the effect is half-maximal. Higher therefore signals weaker potency. In the case of `CN(C)[C@@H]1CCc2c(cccc2-c2ccccc2F)C1` [(2R)-5-FPT], the “Function at 5-HT2A receptors” value at 5HT2A receptors [4] is “neutral antagonist function”. For the same molecule, at 5HT7 [5], the “5-HT7 agonist potency of (R)-enantiomer less than (S)-isomer” value is “about 11 times”; a half-maximal response (EC50) required 0.378 µM; the “EMAX vs AS-19, 5-HT7 Gs-cAMP signaling” value amounted to 29%; the “Function at 5HT7” value was “partial agonism”. Moreover, in the data set on C57BL/6J mice, the “DOI-elicited HTR” value is “substantially less efficacious than (2S)-5-FPT”. The “Affinity at 5-HT2A receptors” value at 5HT2A receptors [6] (human and mouse 5-HT2A receptors, compared with (2S)-5-FPT) is on record as “substantially higher affinity”. On 5HT7 [2] (Affinity Ki ± SEM at 5HT7), the Ki is 0.75 µM and ~0.46 µM.
Turning to `CCCN(CCC)[C@H]1CCc2c(cccc2-c2ccccc2Cl)C1` [(S)-5-CPPT, (2S)-5-(2′-chlorophenyl)-N,N-dipropyl-1,2,3,4-tetrahydronaphtha-len-2-amine], on 5HT7 [5], the “Function at 5HT7” value was “Full agonist”. Moreover, the Ki is 0.0006 ± 0.0002 µM on 5HT1A [1] and 0.0059 ± 0.001 µM at 5HT7 [2] (setting [12]).
As for `CN(C)[C@H]1CCc2c(cccc2-c2ccccc2Cl)C1.Cl` [(S)-5-CPT, (2S)-5-(2-chlorophenyl)-N,N-dimethyl-1,2,3,4-tetrahydronaphthalen-2-amine HCl], the “Agonist efficacy/potency at 5HT2C receptors” value at 5HT2C receptors is “less potency and efficacy”. For the same molecule, on 5HT7 [5], the “Function at 5HT7” value was “Partial agonist”. Further, the inhibition constant (Ki) at 5HT1A [1] (setting [13]) is 0.0075 ± 0.0015 µM; on 5HT2B receptors [7] it was 0.011 µM; at 5HT2A receptors [6], around 0.5 µM; on 5HT7 [2] (setting [12]), 0.001 ± 0.00012 µM. Further, the “Function at 5HT1A” value on 5HT1A [8] is recorded as “Partial agonist”. In addition, the “Activity at 50 CNS/peripheral sites” value in the data set on 50 CNS/peripheral sites is recorded as “without activity at 50 CNS/peripheral sites”. For the same molecule, the 5HT2B functional activity entry at 5HT2B receptors [9] is “devoid of 5HT2B activity up to 100 μM”.
As for `CN(C)[C@H]1CCc2c(cccc2-c2cccc3ccccc23)C1` [(S)-5-NaT, (2S)—N,N-dimethyl-5,6,7,8-tetrahydro-[1,1′-binaphthalen]-6-amine], the “Function at 5HT7” value on 5HT7 [5] is listed as “Partial agonist”. Also, the values for the Ki at 5HT1A [1] (setting [13]) and on 5HT7 [2] (setting [12]) were 0.064 ± 0.012 µM and 0.0052 ± 0.0011 µM, respectively. Moreover, the “Function at 5HT1A” value at 5HT1A [8] is given as “Partial agonist”.
`CCCN(CCC)[C@H]1CCc2c(cccc2-c2ccccc2)C1.Cl` [(S)-5-PPT, (2S)-5-phenyl-N,N-dipropyl-1,2,3,4-tetrahydronaphthalen-2-amine HCl]: the “Function at 5HT7” value at 5HT7 [5] is “Full agonist”. In addition, the Ki at 5HT1A [1] (setting [13]) came to 0.0059 ± 0.0011 µM; on 5HT7 [2] (setting [12]), 0.034 ± 0.003 µM.
For `CN(C)[C@H]1CCc2c(cccc2-c2ccccc2)C1.Cl` [(S)-5-PT, N,N-dimethyl-5-phenyl-1,2,3,4-tetrahydronaphthalen-2-amine HCl], on 5HT7 [5], the “Function at 5HT7” value was “Neutral antagonist”. The Ki at 5HT1A [1] is 0.022 ± 0.003 µM; on 5HT7 [2] (Affinity Ki ± SEM at 5HT7), 0.0095 ± 0.0015 µM. The “Function at 5HT1A” value on 5HT1A [8] is given as “Partial agonist”.
Take `CN(C)[C@H]1CCc2c(cccc2-c2cccn2C)C1` [(S)-5-PyT]: the “Function at 5HT7” value at 5HT7 [5] was “Inverse agonist”; at 5HT7 [5] (listed as 5-PyT), “inverse agonist at 5HT7/Gαs”; at 5HT7 [5] (listed as (2S)-5-PyT), “inverse agonist”. The Ki amounted to 0.024 ± 0.0002 µM at 5HT1A [1] and 0.033 ± 0.004 µM at 5HT7 [2] (Affinity Ki ± SEM at 5HT7). The “Function at 5HT1A” value at 5HT1A [8] was “Partial agonist”; at 5HT1A [8] (listed as 5-PyT), “agonist at 5HT1A/Gαi”; at 5HT1A [8] (listed as (2S)-5-PyT), “agonist”.
For `Cc1nn(C)c(C)c1-c1cccc2c1CC[C@H](N(C)C)C2` [(S)-AS-19, (2S)-5-trimethylpyrazolyl-2-dimethyl-aminotetralin, reference compound], on 5HT7 [5], the “Function at 5HT7” value is “Partial agonist”. In addition, the “DOI-elicited HTR” value in the data set on C57BL/6J mice was “suppressed the DOI HTR”. Further, the Ki came to 0.24 µM on 5HT1A [1] (setting [13]) and 0.012 µM at 5HT7 [2] (setting [12]). Moreover, the “Serotonin syndrome” value in the data set on BL/6J mice is reported as “neither (—)-DPAT, a 5-HT1A partial agonist, nor AS-19 affected locomotor behavior or caused obvious serotonin syndrome”. Also, the Locomotor behavior result in data set [3] is given as “neither (—)-DPAT, a 5-HT1A partial agonist, nor AS-19 affected locomotor behavior”. Also, on 5HT7 [2] (from Ki of Table 1), the “Selectivity for 5HT7 over 5HT1A” value is recorded as 20 fold.
With `CCCN(CCC)C1CCc2cccc(O)c2C1` (stereo not drawn) [(—)-DPAT, reference compound], the “DOI-elicited HTR” value in the data set with C57BL/6J mice is “suppressed the DOI HTR”. In the data set on BL/6J mice, the “Serotonin syndrome” value is “neither (—)-DPAT, a 5-HT1A partial agonist, nor AS-19 affected locomotor behavior or caused obvious serotonin syndrome”. Also, the Locomotor behavior result in [3] was “neither (—)-DPAT, a 5-HT1A partial agonist, nor AS-19 affected locomotor behavior”.
Take `O=C1CC2(CCCC2)CC(=O)N1CCCCN1CCN(c2ncccn2)CC1` [Buspirone, reference compound]: the “DOI-elicited HTR” value with C57BL/6J mice was “reduces DOI-elicited repetitive behavior”. Also, the “Function at 5HT1A” value at 5HT1A [8] is “Partial agonist”. Besides, in [3] (3 mg/kg, by itself), the Catatonia entry is given as “causes stupor-like catatonia”. Further, in data set [3], the Locomotor behavior entry is “reduces locomotor behavior”.
With `CCCN(CCC)[C@@H]1CCc2cccc(O)c2C1` [Compound 8-OH-DPAT, (R)-8-hydroxy-2-(n-di-propylamino)tetralin], on 5HT7 [10], the “Function at 5HT7 (literature)” value is given as “low-potency 5HT7 partial agonist”.
`N#Cc1ccc(CNC(=O)CCCCCN2CCN(c3ccccc3-c3ccccc3)CC2)cc1` [LP-211]: the “Selectivity for 5HT7 over 5HT1A receptors” value at 5HT7 [11] is “about 25 X”.
